# Assay results taken from US8039670B2, “Analogs of alpha galactosyceramide and uses thereof” (Ludwig Institute for Cancer Research, priority 2005, dated 2011).
# Tests used:
# human DC = assay: DC maturation in co-culture of human DC and iNKT cells (flow cytometry CD83, CD86, CD38); assay type: cell-based; settings: titration on DC, 48 h
# Protocol: Different analogs of α-GalCer as indicated or LPS were added to co-cultures of human DC and iNKT cells. (A) Maturation of the DC was assessed after 40 h, gating on CD11c positive cells. Histograms indicate the CD83 and CD86 profiles of DC from different treatments; the percentages indicate the percentage of CD83hi mature DC and the numbers in parenthesis, the mean fluorescence intensity of the population contained within the labeled gate. DC and iNKT cells were co-cultured in the presence of different analogs of α-GalCer for 24 hours. Supernatants were analyzed using ELISA for the presence of (B) IL-12p40 released by the DC and (C) IFN-γ from the iNKT cells. […] Cells were co-cultured in the presence of the indicated concentration of analog and the percentages of DC with increased CD83/CD80 are shown. […] Viability of α-GalCer or analog-pulsed DC was assessed after 40 h co-culture in the presence of iNKT cells by flow cytometry. Cells were stained with propidium iodide and the percentage of live CD11c gated cells remaining in the culture are shown.
# Human monocyte-derived DC were pulsed with 150 ng of different inositol analogs and co-cultured with iNKT cells for 24 h. […] Numbers indicate the mean fluorescence intensity of the histogram gated on CD11c^+ cells.
# Immature human DC were cultured in the presence of a human iNKT cell clone with or without analogs or vehicle at different concentrations.
# (§1) To compare the functions of high affinity α-GalCer, intermediate affinity threitolceramide with the known, low affinity analog OCH, the three compounds were titrated onto DC and used to present to iNKT cells. Maturation of DC and DC viability were examined after 48 h.
# DC = assay: Viability of analog-pulsed DC co-cultured with iNKT cells (propidium iodide); assay type: cell-based, human; settings: at concentration of maximal DC maturation
# Protocol: Different analogs of α-GalCer as indicated or LPS were added to co-cultures of human DC and iNKT cells. (A) Maturation of the DC was assessed after 40 h, gating on CD11c positive cells. Histograms indicate the CD83 and CD86 profiles of DC from different treatments; the percentages indicate the percentage of CD83hi mature DC and the numbers in parenthesis, the mean fluorescence intensity of the population contained within the labeled gate. DC and iNKT cells were co-cultured in the presence of different analogs of α-GalCer for 24 hours. Supernatants were analyzed using ELISA for the presence of (B) IL-12p40 released by the DC and (C) IFN-γ from the iNKT cells. All the compounds tested induced weaker but significant cytokine production than α-GalCer, with the exception of arabinitolceramide. (D) Titration of α-GalCer, OCH or threitolceramide on DCs and co-culture with iNKT cells induces DC maturation in vitro. Cells were co-cultured in the presence of the indicated concentration of analog and the percentages of DC with increased CD83/CD80 are shown. […] Viability of α-GalCer or analog-pulsed DC was assessed after 40 h co-culture in the presence of iNKT cells by flow cytometry. Cells were stained with propidium iodide and the percentage of live CD11c gated cells remaining in the culture are shown.
# as §1
# human CD1d molecules = molecular target: T1, human CD1d molecules (Homo sapiens, UniProt P15813); assay: Dissociation of ligand from hCD1d, surface plasmon resonance with 9B Fab; assay type: binding; settings: fold faster than α-GalCer
# T1 construct: soluble human CD1d molecules; biotin (biotinylated); made in house
# Excerpt: FIG. 1 Comparison of dissociation rate of OCH and α-GalCer. Dissociation of ligand from hCD1d. The indicated hCD1d (α-Gal Cer or OCH) complex was loaded onto a Surface Plasmon resonance (Biacore) sensor surface at t=0 and the amount of hCD1d remaining at the indicated time point measured using the Fab 9B.
# Using the 9B Fab we looked at the rate of dissociation of all the tested compounds from soluble human CD1d molecules using surface plasmon resonance. Biotinylated CD1d-lipid complexes were immobilized to streptavidin-coated chips and the level of binding of the 9B Fab was measured over time. The loss of binding of the antibody over time was used to determine the rate of lipid dissociation from CD1d molecules.
# T1 sequence (P15813 20-301 limits assumed): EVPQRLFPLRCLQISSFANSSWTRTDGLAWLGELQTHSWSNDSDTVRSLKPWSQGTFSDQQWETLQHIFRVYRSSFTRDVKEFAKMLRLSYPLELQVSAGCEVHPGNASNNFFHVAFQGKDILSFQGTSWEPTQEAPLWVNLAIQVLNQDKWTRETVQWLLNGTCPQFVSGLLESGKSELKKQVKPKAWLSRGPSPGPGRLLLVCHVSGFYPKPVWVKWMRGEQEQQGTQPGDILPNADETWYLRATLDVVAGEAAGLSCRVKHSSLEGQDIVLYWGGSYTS
# T1 sequence (P61769 21-119 partner): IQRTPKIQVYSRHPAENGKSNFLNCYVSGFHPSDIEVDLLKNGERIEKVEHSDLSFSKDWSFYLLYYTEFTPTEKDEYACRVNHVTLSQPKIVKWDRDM
smiles,measurement,setting,value
"CCCCCCCCCCCCCCCCCCCCCCCC(=O)N[C@@H](CO[C@H]1O[C@H](CO)[C@H](O)[C@H](O)[C@H]1O)[C@H](O)[C@H](O)CCCCC [OCH, (2S,3S,4R)-1-O-(α-D-galactopyranosyl)-N-tetracosanoyl-2-amino-1,3,4-nonanetriol]",concentration inducing maximal DC maturation,human DC,67 ng/mL
same,DC viability (propidium iodide negative) compared with α-GalCer,DC,significantly greater proportion of DC were propidium iodide negative
same,rate of dissociation from hCD1d relative to α-GalCer,human CD1d molecules,3.9 fold
